The record followed here is patent publication US10342806B2, “Hormone treatment for age-related hearing loss-presbycusis” (priority 2014, dated 2019).

Molecules are shown by their SMILES.

For one experiment, the system named is caspase-3. Put plainly: Caspase-3 expression in modiolar tissue samples. Type of experiment: in vivo, mouse. To be noted: ALD-treated middle-aged mice vs control middle-aged and young mice. How it is done:
During treatment, blood pressures were measured for the mice at 2 and 4 months after start of treatment. […] Death was confirmed by terminal phlebotomy/exsanguinations and perfusion. Cell lysates were collected and subject to western blot and RT-PCT analysis. The cells were placed in RIPA buffer and sonicated. Protein concentration was measured using the Bradford method. Proteins were separated by SDS-PAGE. The antibodies used for western blot were: anti-iNOS, nNOS and caspase-3 antibodies (Cell Signaling, Cambridge, Mass.). Total cellular RNA was extracted using the RNeasy Plus Mini Kit (74134). For RT-PCR, 10 ng of total cellular RNA was reverse transcribed and complementary DNA was amplified, using the Enhanced Avian HS RT-PCR-100 Kit (Sigma, HSRT20).

The next experiment relates to NKCC1. The experiment can be described thus: Tl-uptake in single HT-29 cells (FluxOR) for NKCC1 activity. Type of experiment: cell-based, human. To be noted: 24 single HT-29 cells per condition. The source says: Tl-uptake in single cells for the detection of NKCC1 activity. To measure NKCC1 activity, we used a fluorescence assay to assess cotransporter activity in single isolated HT-29 cells (Delpire & Austin, Kinase regulation of Na^+—K^+-2Cl^− cotransport in primary afferent neurons. J Physiol 588: 3365-3373, 2010, Geng, et al., The Ste20 kinases SPAK and OSR1 regulate NKCC1 function in sensory neurons. J Biol Chem 284: 14020-14028, 2009, Weaver, et al., A thallium-sensitive, fluorescence-based assay for detecting and characterizing potassium channel modulators in mammalian cells. J Biomol Screen 9: 671-677, 2004). HT-29 cells were incubated at 37° C./5% CO2 for 24 h before use. […] For the detection of fluorescence, the preincubation solution was removed, and the cells were treated with a 340.5 mosM hypertonic stimulus solution containing the following (in mM): (2.8 TISO4, 140 NaCl, 2 KCl, 2 CaCl2, 0.8 MgSO4, 5 glucose, 20 HEPES, 27 sucrose, 1 ouabain, and 2.7 probenecid) in the presence or absence of 20 μM bumetanide. […] FluxOR fluorescence (excitation/emission: 488/525 nm) was recorded after 90 s upon addition of 2.8 mM […] to the external medium. […]
Influence of ALD on NKCC1 transporter activity. […] To test this hypothesis, a more efficient and sensitive method, fluorescence Ion flux assays was adopted to measure NKCC1 transporter activity. […]

Another experiment has as its system NKCC1 mRNA. The experiment can be described thus: NKCC1 mRNA in HT-29 cells, semiquantitative and real-time RT-PCR. Type of experiment: cell-based, human. The following applies: ALD 1 μM, both RT-PCR methods. How it is done: Relative quantitative RT-PCR. Total RNA was extracted using the RNAeasy Mini Kit (Qiagen, Valencia Calif.). […] Primers used for qRTPCR were as follows: […]
The semiquantitative qRT-PCR reaction took place at 45° C. for 50 min. The competition between primer sets was excluded by adjusting the reaction condition.
Then, the primer products were PCR amplified directly. A first cycle of 10 min. at 95° C., 45 s at 65° C., and 1 min at 72° C. was followed by 45 s at 95° C., 45 s at 65° C., and 1 min at 72° C. for 25 cycles. The conditions were chosen so that the RNAs analyzed were in the exponential phase of amplification. Each set of reactions always included a no-sample negative control. We usually performed a negative control containing RNA instead of cDNA to rule out genomic DNA contamination.
The real-time RT-PCR reaction mixture was prepared using the SYBR-Green PCR Master Mix. Thermal cycling conditions were the same as in the semiquantitative method. Amplification specificity was checked using melting curves. Both negative and positive controls were included in each PCR reaction. All assays were carried out three times as independent PCR runs for each cDNA sample. […] Calculations of expression were performed with the […] method (Bustin, et al., Quantitative real-time RTPCR—a perspective. J Mol Endocrinol 34: 597-601, 2005).
Background: Quantitative PCR measures a nucleic acid by following its amplification.

Take `C[C@]12CCC(=O)C=C1CC[C@@H]1[C@@H]2[C@@H](O)C[C@]2(C=O)[C@@H](C(=O)CO)CC[C@@H]12` [ALD, aldosterone]: the “caspase-3 levels in modiolar tissue” value in the experiment on caspase-3 is recorded as “reduced caspase-3 to levels below even the young mice samples”. The “bumetanide-sensitive Tl+ uptake fluorescence” value in the experiment with NKCC1 is “marked increase in fluorescence”. In addition, the “NKCC1 mRNA” value with NKCC1 mRNA is “no mRNA change”.
